These results are taken from ChEMBL document CHEMBL1926600, “Design, synthesis and biological evaluation of cycloalkyl arylpyrimidines (CAPYs) as HIV-1 NNRTIs” (Bioorg Med Chem, 2011).

In general, CC50 refers to the concentration giving 50% cytotoxicity. Higher therefore signals better tolerance by the cells. For orientation: EC50 means the concentration giving half of the maximal effect.

The nature of data set [1]: Cytotoxicity against human MT4 cells measured by MTT assay. The data set is classed as cell-based. On the technique in general: Tetrazolium assays rely on reduction of a dye to a coloured formazan, in cell work by metabolically active cells.
Data set [2] can be described thus: Selectivity index, ratio of CC50 for human MT4 cells to EC50 for HIV1 3B. The format is toxicity, cell-based. The following applies: read-out: Ratio CC50/EC50.
In data set [3] the test system is Human immunodeficiency virus 1. The data set can be described thus: Antiviral activity against wild type HIV1 3B infected in human MT4 cells assessed as reduction in virus-induced cytopathogenicity after 5 days by MTT assay. The format is functional, organism-based. The following applies: Human immunodeficiency virus 1, 3B, MT4, 120 h. (In general: Protection from cytopathic effect is a common read-out in antiviral testing.)

Data set [4] concerns Human immunodeficiency virus 2. The data set can be described thus: Antiviral activity against HIV2 ROD infected in human MT4 cells assessed as reduction in virus-induced cytopathogenicity after 5 days by MTT assay. The format is functional, organism-based. The following applies: Human immunodeficiency virus 2, ISOLATE ROD, MT4, 120 h.
Data set [5] relates to Human immunodeficiency virus 1. Briefly: Antiviral activity against HIV1 harboring reverse transcriptase K103N/Y181C mutant infected in human MT4 cells assessed as reduction in virus-induced cytopathogenicity after 5 days by MTT assay. The format is functional, organism-based. The following applies: Human immunodeficiency virus 1, MT4, 120 h.

On to `Cc1cc(SC2CCCCC2)nc(Nc2ccc(C#N)cc2)n1`, for which, in data set [1], the CC50 was ≥ 192000 nM. The selectivity ratio in data set [2] is ≥ 2010. Moreover, the concentration for a half-maximal effect (EC50) in data set [3] was 96 nM; in data set [4], > 192000 nM; in data set [5], > 192000 nM.

In data set [1], `N#Cc1ccc(Nc2nccc(OC3CCCCC3)n2)cc1` showed a CC50 of 322000 nM. Besides, the selectivity ratio in data set [2] was 276. Further, the values for the EC50 in data set [3], in data set [4] and in data set [5] were 1160 nM, > 322000 nM and > 322000 nM, respectively.

As for `N#Cc1ccc(Nc2nccc(OC3CCCC3)n2)cc1`, in data set [1], the CC50 was ≥ 340000 nM. The selectivity ratio in data set [2] was ≥ 51. Besides, the concentration for a half-maximal effect (EC50) is 6710 nM in data set [3], 31300 nM in data set [4] and > 340000 nM in data set [5].

Molecule `Cc1cnc(Nc2ccc(C#N)cc2)nc1OC1CCCCC1` yielded a CC50 in data set [1] of 31200 nM. In addition, in data set [2], the selectivity ratio came out at 5. For the same molecule, the results for the EC50 in data set [3], in data set [4] and in data set [5] were 6490 nM, > 31200 nM and > 31200 nM, respectively.

`Cc1cnc(Nc2ccc(C#N)cc2)nc1OC1CCCC1` returned a cytotoxic concentration (CC50) in data set [1] of 9990 nM. In addition, the selectivity ratio in data set [2] is < 1. The half-maximal effective concentration (EC50) in data set [3] and in data set [4] was > 9990 nM in each case.

Regarding `Cc1cc(OC2CCCCC2)nc(Nc2ccc(C#N)cc2)n1`, the CC50 in data set [1] amounted to 320 nM. Further, the selectivity ratio in data set [2] was < 1. In addition, the EC50 in data set [3] and in data set [4] was > 320 nM in each case.

In the case of `Cc1cc(OC2CCCC2)nc(Nc2ccc(C#N)cc2)n1`, the CC50 in data set [1] stood at 1050 nM. In addition, the selectivity ratio in data set [2] was < 1. The EC50 in data set [3] and in data set [4] was > 1050 nM throughout.

For the molecule `N#Cc1ccc(Nc2nccc(NC3CCCCC3)n2)cc1`, in data set [1], the midpoint of cytotoxicity, the CC50, lay at 7330 nM. In data set [2], the selectivity ratio came to 8. Moreover, the 50% effective concentration (EC50) was 960 nM in data set [3], > 7330 nM in data set [4] and > 7330 nM in data set [5].

For the molecule `N#Cc1ccc(Nc2nccc(NC3CCCC3)n2)cc1`, the CC50 in data set [1] stood at 9130 nM. The selectivity ratio in data set [2] worked out at 6. The EC50 in data set [3] is 1580 nM; in data set [4] it was > 9130 nM; in data set [5], > 9130 nM.

In data set [1], `N#Cc1ccc(Nc2nccc(NC3CC3)n2)cc1` displayed a CC50 of 1190 nM. The selectivity ratio in data set [2] was < 1. The EC50 in data set [3] and in data set [4] was > 1190 nM each time.

Regarding `Cc1cnc(Nc2ccc(C#N)cc2)nc1NC1CCCCC1`, the CC50 in data set [1] amounted to 1300 nM. The selectivity ratio in data set [2] was < 1. Also, the EC50 in data set [3] and in data set [4] was > 1300 nM each time.

In data set [1], `Cc1cnc(Nc2ccc(C#N)cc2)nc1NC1CCCC1` showed a CC50 of 170 nM. Besides, in data set [2], the selectivity ratio was < 1. Also, the EC50 in data set [3] and in data set [4] was > 170 nM in each case.

Molecule `Cc1cnc(Nc2ccc(C#N)cc2)nc1NC1CC1` had a CC50 in data set [1] of 360 nM. Besides, the selectivity ratio in data set [2] is < 1. In addition, the EC50 in data set [3] and in data set [4] was > 360 nM in each case.

`Cc1cc(NC2CCCCC2)nc(Nc2ccc(C#N)cc2)n1` registered a CC50 in data set [1] of 340 nM. The selectivity ratio in data set [2] was < 1. Besides, the EC50 in data set [3] and in data set [4] was > 340 nM throughout.

As for `Cc1cc(NC2CCCC2)nc(Nc2ccc(C#N)cc2)n1`, the CC50 in data set [1] was 310 nM. Also, in data set [2], the selectivity ratio was < 1. The EC50 in data set [3] and in data set [4] was > 310 nM in each case.

As for `Cc1cc(NC2CC2)nc(Nc2ccc(C#N)cc2)n1`, in data set [1], the midpoint of cytotoxicity, the CC50, lay at 88 nM. For the same molecule, the selectivity ratio in data set [2] is < 1. Further, the EC50 in data set [3] and in data set [4] was > 88 nM throughout.

Take `N#Cc1ccc(Nc2nccc(SC3CCCCC3)n2)cc1`: the CC50 in data set [1] was > 403000 nM. Besides, the selectivity ratio in data set [2] is > 7290. Further, the EC50 in data set [3] is 55 nM; in data set [4] it was > 403000 nM; in data set [5], > 403000 nM.

`Cc1cnc(Nc2ccc(C#N)cc2)nc1SC1CCCCC1`: half-maximal cytotoxicity in data set [1] (CC50) was put at 33400 nM. In data set [2], the selectivity ratio was found to be 79. The 50% effective concentration (EC50) is 430 nM in data set [3], > 33400 nM in data set [4] and > 33400 nM in data set [5].

Regarding `CC(C)Nc1cccnc1N1CCN(C(=O)c2cc3cc(NS(C)(=O)=O)ccc3[nH]2)CC1` [DELAVIRDINE], in data set [1], the CC50 is > 4390 nM. Moreover, the selectivity ratio in data set [2] was > 274. Also, the EC50 in data set [3] is 16 nM; in data set [5], > 4390 nM.

On to `O=C1Nc2ccc(Cl)cc2[C@@](C#CC2CC2)(C(F)(F)F)O1` [EFAVIRENZ], for which the CC50 in data set [1] was > 6340 nM. The selectivity ratio in data set [2] is > 1150. Also, the EC50 was 5.4 nM in data set [3] and 510 nM in data set [5].

Regarding `Cc1cc(C#N)cc(C)c1Oc1nc(Nc2ccc(C#N)cc2)nc(N)c1Br` [ETRAVIRINE], half-maximal cytotoxicity in data set [1] (CC50) was put at 27800 nM. Further, the selectivity ratio in data set [2] came out at 12900. For the same molecule, the EC50 in data set [3] was 2.2 nM; in data set [4], > 27800 nM; in data set [5] it was 34 nM.

For the molecule `Cc1ccnc2c1NC(=O)c1cccnc1N2C1CC1` [NEVIRAPINE], the 50% cytotoxic concentration (CC50) in data set [1] is > 15000 nM. Besides, the EC50 in data set [4] was > 15000 nM; in data set [5] it was 3490 nM.

With `Cc1cn([C@H]2C[C@H](N=[N+]=[N-])[C@@H](CO)O2)c(=O)[nH]c1=O` [ZIDOVUDINE], the 50% cytotoxic concentration (CC50) in data set [1] is ≥ 46400 nM. Further, the selectivity ratio in data set [2] was ≥ 6360. Further, the EC50 in data set [3] stood at 7.5 nM; in data set [4], 7.5 nM; in data set [5], 13 nM.
